Measurements reported in ChEMBL document CHEMBL5724914, “Linking interpersonal differences in gut microbiota composition and drug biotransformation activity” (2024).

Tests used:
[1] = human gut metagenome, 24 h, 2 µM
[2] = (§1) The drug is tested on Z-030 corresponding to mouse gut metagenome with ENA study accession number: PRJEB37062 and ENA sample accession number: ERS12561829 for biotransformation under anaerobic condition. The drug concentrations were measured over 9 timepoints collected between 0 and 24 hours of incubation by liquid-chromatography-coupled mass spectrometry (LC–MS); conditions: 2 µM
[3] = as §1, with “Z-007” for “Z-030”, “rat” for “mouse”, “ERS12561807” for “ERS12561829”; conditions: 2 µM
[4] = as §1, with “Z-001” for “Z-030”, “ERS12561801” for “ERS12561829”; conditions: 2 µM
[5] = human gut metagenome, 24 h, 2 µM; remark: listed apart in the source
[6] = human gut metagenome, 24 h, 2 µM; remark: listed apart in the source
[7] = as §1, with “Z-021” for “Z-030”, “to” for “to mouse gut”, “ERS12561820” for “ERS12561829”; conditions: 2 µM
[8] = human gut metagenome, 24 h, 2 µM; remark: listed apart in the source
[9] = human gut metagenome, 24 h, 2 µM; remark: listed apart in the source
[10] = as §1, with “Z-023” for “Z-030”, “to” for “to mouse gut”, “ERS12561822” for “ERS12561829”; conditions: 2 µM
[11] = human gut metagenome, 24 h, 2 µM; remark: listed apart in the source
[12] = human gut metagenome, 24 h, 2 µM; remark: listed apart in the source
[13] = human gut metagenome, 24 h, 2 µM; remark: listed apart in the source
[14] = human gut metagenome, 24 h, 2 µM; remark: listed apart in the source
[15] = as §1, with “Z-016” for “Z-030”, “ERS12561815” for “ERS12561829”; conditions: 2 µM
[16] = as §1, with “WLS-007” for “Z-030”, “human” for “mouse”, “ERS12561742” for “ERS12561829”; conditions: 2 µM
[17] = as §1, with “WLS-069” for “Z-030”, “human” for “mouse”, “ERS12561748” for “ERS12561829”; conditions: 2 µM
[18] = human gut metagenome, 24 h, 2 µM; remark: listed apart in the source
[19] = human gut metagenome, 24 h, 2 µM; remark: listed apart in the source
[20] = as §1, with “WLS-077” for “Z-030”, “human” for “mouse”, “ERS12561750” for “ERS12561829”; conditions: 2 µM
Further: call rule not given here.

| Bacterial Biotransformation [1] | Bacterial Biotransformation [2] | Bacterial Biotransformation [3] | Bacterial Biotransformation [4] | Bacterial Biotransformation [5] | Bacterial Biotransformation [6] | Bacterial Biotransformation [7] | Bacterial Biotransformation [8] | Bacterial Biotransformation [9] | Bacterial Biotransformation [10] | Bacterial Biotransformation [11] | Bacterial Biotransformation [12] | Bacterial Biotransformation [13] | Bacterial Biotransformation [14] | Bacterial Biotransformation [15] | Bacterial Biotransformation [16] | Bacterial Biotransformation [17] | Bacterial Biotransformation [18] | Bacterial Biotransformation [19] | Bacterial Biotransformation [20] | SMILES |
| --- | --- | --- | --- | --- | --- | --- | --- | --- | --- | --- | --- | --- | --- | --- | --- | --- | --- | --- | --- | --- |
| Compound NOT metabolized | Compound NOT metabolized | Compound metabolized | Compound metabolized | Compound NOT metabolized | Compound metabolized | Compound metabolized | Compound NOT metabolized | Compound NOT metabolized | Compound NOT metabolized | Compound NOT metabolized | Compound NOT metabolized | Compound NOT metabolized | Compound NOT metabolized | Compound metabolized | Compound NOT metabolized | – | – | – | – | CSc1ccc2c(c1)C(N1CCN(C)CC1)Cc1ccccc1S2.O=C(O)/C=C\C(=O)O (centres undefined) |
| Compound NOT metabolized | Compound NOT metabolized | Compound NOT metabolized | Compound NOT metabolized | Compound NOT metabolized | Compound metabolized | Compound metabolized | Compound NOT metabolized | Compound NOT metabolized | Compound metabolized | Compound NOT metabolized | Compound NOT metabolized | Compound NOT metabolized | Compound NOT metabolized | Compound metabolized | – | Compound metabolized | Compound NOT metabolized | Compound NOT metabolized | Compound metabolized | COc1ccc(/C=C/C(=O)Nc2ccccc2C(=O)O)cc1OC |
| Compound metabolized | Compound NOT metabolized | Compound NOT metabolized | Compound NOT metabolized | Compound metabolized | Compound metabolized | Compound NOT metabolized | Compound NOT metabolized | Compound NOT metabolized | Compound NOT metabolized | Compound metabolized | Compound NOT metabolized | Compound metabolized | Compound NOT metabolized | Compound NOT metabolized | Compound metabolized | Compound metabolized | Compound metabolized | – | Compound metabolized | CCc1oc2ccccc2c1C(=O)c1cc(Br)c(O)c(Br)c1 [BENZBROMARONE] |
| Compound NOT metabolized | Compound NOT metabolized | Compound NOT metabolized | Compound NOT metabolized | Compound NOT metabolized | Compound NOT metabolized | Compound metabolized | Compound NOT metabolized | Compound NOT metabolized | Compound metabolized | Compound NOT metabolized | Compound NOT metabolized | Compound NOT metabolized | Compound NOT metabolized | – | Compound NOT metabolized | Compound NOT metabolized | Compound NOT metabolized | Compound NOT metabolized | Compound NOT metabolized | CCOC(=O)[C@H](CCc1ccccc1)N[C@@H](C)C(=O)N1CCC[C@H]1C(=O)O.O=C(O)/C=C\C(=O)O [ENALAPRIL MALEATE] |
| – | Compound NOT metabolized | – | Compound metabolized | Compound metabolized | Compound NOT metabolized | Compound metabolized | Compound NOT metabolized | – | Compound metabolized | Compound metabolized | Compound metabolized | Compound metabolized | – | – | – | Compound metabolized | – | – | – | C#C[C@]1(OC(C)=O)CC[C@H]2[C@@H]3CCC4=CC(=O)CC[C@@H]4[C@H]3CC[C@@]21C [NORETHINDRONE ACETATE] |
| Compound NOT metabolized | Compound NOT metabolized | Compound NOT metabolized | Compound NOT metabolized | Compound NOT metabolized | Compound NOT metabolized | Compound NOT metabolized | Compound NOT metabolized | Compound NOT metabolized | Compound metabolized | Compound NOT metabolized | Compound NOT metabolized | Compound NOT metabolized | – | Compound metabolized | – | Compound metabolized | Compound NOT metabolized | – | Compound metabolized | CC(=O)O[C@H]1C(=O)[C@@]2(C)[C@H]([C@H](OC(=O)c3ccccc3)[C@]3(O)C[C@H](OC(=O)[C@H](O)[C@@H](NC(=O)c4ccccc4)c4ccccc4)C(C)=C1C3(C)C)[C@]1(OC(C)=O)CO[C@@H]1C[C@@H]2O [PACLITAXEL] |
| Compound NOT metabolized | Compound NOT metabolized | Compound NOT metabolized | Compound NOT metabolized | Compound NOT metabolized | Compound NOT metabolized | Compound NOT metabolized | Compound NOT metabolized | Compound NOT metabolized | Compound NOT metabolized | Compound NOT metabolized | Compound metabolized | Compound NOT metabolized | Compound NOT metabolized | Compound metabolized | – | Compound metabolized | Compound metabolized | Compound NOT metabolized | Compound NOT metabolized | COc1cc(NC(C)CCCN)c2ncccc2c1.O=P(O)(O)O.O=P(O)(O)O (centres undefined) [PRIMAQUINE PHOSPHATE] |
| Compound metabolized | Compound NOT metabolized | Compound metabolized | Compound metabolized | Compound metabolized | Compound metabolized | Compound metabolized | Compound metabolized | Compound metabolized | Compound metabolized | Compound metabolized | Compound metabolized | Compound metabolized | Compound metabolized | Compound metabolized | Compound metabolized | – | Compound metabolized | Compound metabolized | Compound metabolized | CC(=O)OCC(=O)NCCCOc1cccc(CN2CCCCC2)c1 [ROXATIDINE ACETATE] |
| Compound NOT metabolized | Compound NOT metabolized | Compound NOT metabolized | Compound NOT metabolized | Compound NOT metabolized | Compound metabolized | Compound NOT metabolized | Compound NOT metabolized | Compound NOT metabolized | Compound NOT metabolized | Compound NOT metabolized | Compound metabolized | Compound metabolized | Compound NOT metabolized | Compound NOT metabolized | Compound metabolized | – | Compound metabolized | Compound NOT metabolized | Compound NOT metabolized | COc1cc2nc(N3CCN(C(=O)C4CCCO4)CC3)nc(N)c2cc1OC (centres undefined) [TERAZOSIN] |

| SMILES | Bacterial Biotransformation [1] | Bacterial Biotransformation [2] | Bacterial Biotransformation [3] | Bacterial Biotransformation [4] | Bacterial Biotransformation [5] | Bacterial Biotransformation [6] | Bacterial Biotransformation [7] | Bacterial Biotransformation [8] | Bacterial Biotransformation [9] | Bacterial Biotransformation [10] | Bacterial Biotransformation [11] | Bacterial Biotransformation [12] | Bacterial Biotransformation [13] | Bacterial Biotransformation [14] | Bacterial Biotransformation [15] | Bacterial Biotransformation [16] | Bacterial Biotransformation [17] | Bacterial Biotransformation [18] | Bacterial Biotransformation [19] | Bacterial Biotransformation [20] |
| --- | --- | --- | --- | --- | --- | --- | --- | --- | --- | --- | --- | --- | --- | --- | --- | --- | --- | --- | --- | --- |
| CN1[C@@H]2CC[C@H]1C[C@@H](OC(=O)[C@H](CO)c1ccccc1)C2 [HYOSCYAMINE] | – | Compound NOT metabolized | Compound NOT metabolized | Compound NOT metabolized | – | Compound metabolized | Compound NOT metabolized | Compound NOT metabolized | – | Compound NOT metabolized | Compound NOT metabolized | – | Compound metabolized | – | – | Compound metabolized | – | Compound metabolized | – | – |
